Measured values taken from US9128100B2, “Non-invasive diagnostic method for the evaluation of intestinal lactase deficiency (hypolactasia)” (Venter Pharma, S.L., priority 2012, dated 2015).

Columns and labels:
[1] = target: T1, intestinal lactase (Homo sapiens, UniProt P09848); assay: The three 4-GX tests (4-hour urine, 5-hour urine, blood) taken together; assay type: in vivo; settings: all 4-GX tests; after correcting biopsy diagnosis
T1 construct: after its oral administration it is hydrolysed by the intestinal mucosa enzyme; from tissue; host or cells: small-intestinal mucosa (enterocyte brush border) of living human volunteers and patients, in vivo
T1 sequence (P09848 869-1927): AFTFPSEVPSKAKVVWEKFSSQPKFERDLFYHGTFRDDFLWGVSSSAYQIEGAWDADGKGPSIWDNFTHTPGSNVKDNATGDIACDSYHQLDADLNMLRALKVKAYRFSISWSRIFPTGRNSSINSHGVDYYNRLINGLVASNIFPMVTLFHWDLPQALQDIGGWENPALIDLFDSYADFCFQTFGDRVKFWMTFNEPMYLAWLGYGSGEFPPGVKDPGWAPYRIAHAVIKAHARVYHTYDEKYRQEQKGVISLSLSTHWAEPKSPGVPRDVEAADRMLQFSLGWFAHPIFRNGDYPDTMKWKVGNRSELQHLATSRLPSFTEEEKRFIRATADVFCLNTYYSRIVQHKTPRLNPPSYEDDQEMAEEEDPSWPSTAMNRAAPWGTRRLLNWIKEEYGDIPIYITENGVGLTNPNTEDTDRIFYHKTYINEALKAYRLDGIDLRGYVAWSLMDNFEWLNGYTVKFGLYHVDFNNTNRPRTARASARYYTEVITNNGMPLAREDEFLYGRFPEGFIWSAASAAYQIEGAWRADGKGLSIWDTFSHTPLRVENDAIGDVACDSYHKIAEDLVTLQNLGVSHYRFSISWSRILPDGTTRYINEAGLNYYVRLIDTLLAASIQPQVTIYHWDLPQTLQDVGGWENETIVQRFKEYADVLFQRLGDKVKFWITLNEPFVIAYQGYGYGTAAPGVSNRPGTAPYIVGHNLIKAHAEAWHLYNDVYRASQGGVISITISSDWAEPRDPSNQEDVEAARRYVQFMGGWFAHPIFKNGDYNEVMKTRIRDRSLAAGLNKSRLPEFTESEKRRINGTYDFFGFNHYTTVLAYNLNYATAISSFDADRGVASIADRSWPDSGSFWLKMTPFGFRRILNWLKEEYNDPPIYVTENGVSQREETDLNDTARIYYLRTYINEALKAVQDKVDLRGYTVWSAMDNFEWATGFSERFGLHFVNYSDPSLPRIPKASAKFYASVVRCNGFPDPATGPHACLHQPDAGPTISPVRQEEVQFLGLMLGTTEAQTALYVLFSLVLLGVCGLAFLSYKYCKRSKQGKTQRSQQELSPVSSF
Method: The diagnostic tests to which these patients were subjected were: • Intestinal biopsy: determining intestinal lactase activity therein. • Hydrogen breath test after the oral administration to patients of 50 g of lactose. While this test was being carried out, several capillary-blood glucose test (Glycemia tests) were carried out, calculating the highest increase observed in the blood glucose concentration compared to basal glucose level before starting the test. • 4-GX test in total urine at 0-4 and 0-5 hours, which was orally administered to patients 0.5 g of this product (or 0.45 g in a 4-GX sample including 10 wt % water), collecting the total urine accumulated over 0-4 h and 0-5 h following the administration of 4-GX and determining the amount of excreted xylose in both volumes of urine. • 4-GX test in blood which was orally administered to patients 3 g of this product (or 2.7 g in a 4-GX sample including 10 wt % water) to determine the concentration of plasma xylose in a blood sample 90 minutes after ingestion of the product. The concentration obtained was compared to a basal blood sample extracted before ingestion of 4-GX.
The 4-GX was orally administered in a single dose dissolved in 100 ml of water. […]

[2] = target: T1, intestinal lactase; assay: Plasma xylose concentration after single oral doses of 4-GX in healthy volunteers; assay type: in vivo; settings: for AUC 0-t: area under the curve of plasma xylose concentration against time: mean
Method: Two groups of subjects were selected. […] Firstly, the lowest suitable oral dose of 4-GX administered to healthy volunteers was determined that enabled reliable detection (in terms of accuracy and reproducibility) of xylose levels in urine and blood via the analytical method to be used. In addition, the tolerance of these subjects to the various doses of 4-GX used in the test and the pharmacokinetics for each dose administered were analysed, both in urine and blood. The doses of 4-GX used were: 0.125 g, 0.250 g, 0.5 g, 1 g, 3 g and 6 g in addition to placebo in 12 healthy volunteers with washout period between doses of between three and seven days. It should be appreciated that the 4-GX doses can include small quantities of water which remain subsequent to the drying process of the 4-GX product. For example, the 4-GX product can contain about 8 wt % to about 12 wt %, most likely about 10 wt % water, based on the total weight of the product. Accordingly, the aforementioned 4-GX doses administered would actually include 0.1125 g, 0.225 g, 0.45 g, 0.9 g, 2.7 g and 5.4 g of actual 4-GX product, respectively, if they contain 10 wt % water. The study was performed with seven treatment periods and a washout time between the various periods of at least 3 days. In each study period, an ascending dose of 4-GX was administered and the serum and urine concentrations of xylose were measured at various times up to 8 hours following the administration of the drug.
The main measured variable was the quantity of xylose in urine collected following oral administration of 4-GX at the following times: basal, 0-1 h, 1-2 h, 2-3 h, 3-4 h, 4-5 h, 5-6 h, 6-7 h and 7-8 h. Secondary variables quantified were the plasma concentration of xylose measured in blood samples extracted following the oral administration of 4-GX at the following times: basal, 30 min, 60 min, 90 min, 120 min, 150 min, 3 h, 4 h, 5 h, 6 h, 7 h and 8 h. A pharmacokinetic analysis was also performed using the values of AUC (area under the curve of variation in the plasma xylose concentration against time), Cmax (maximum xylose plasma concentration), Tmax (time at which maximum xylose plasma concentration was reached) and T1/2 (elimination half-life), calculated from the plasma concentrations of xylose derived from the hydrolysis of 4-GX by intestinal lactase.
The next objective was the determination and pharmacokinetic analysis of the xylose concentration in plasma in order to identify the smallest dose of 4-GX that could be distinguished from placebo (without 4-GX administration) to be used in the 4-GX test for the diagnosis of intestinal lactase deficiency (Table 3).

[3] = target: T1, intestinal lactase; settings: ES 2208099, cited from earlier work

## O=C[C@H](O)[C@@H](O)[C@@H](CO)O[C@@H]1O[C@H](CO)[C@H](O)[C@H](O)[C@H]1O [4-GX, 4-O-β-galactopyranosyl-D-xylose]
[1]
  recalculated values for sensitivity, specificity, positive and negative predictive values: above 95%
[2]; 4-GX 0.125 g oral
  AUC 0-t: area under the curve of plasma xylose concentration against time: 32.49 mg/dL/h
[2]; 4-GX 0.250 g oral
  AUC 0-t: area under the curve of plasma xylose concentration against time: 34.25 mg/dL/h
[2]; 4-GX 0.5 g oral
  AUC 0-t: area under the curve of plasma xylose concentration against time: 35.53 mg/dL/h
[2]; 4-GX 1 g oral
  AUC 0-t: area under the curve of plasma xylose concentration against time: 36.60 mg/dL/h
[2]; 4-GX 3 g oral
  AUC 0-t: area under the curve of plasma xylose concentration against time: 39.24 mg/dL/h
[2]; 4-GX 6 g oral
  AUC 0-t: area under the curve of plasma xylose concentration against time: 41.39 mg/dL/h
[2]; healthy volunteers
  lowest dose of 4-GX for which plasma xylose differs significantly from placebo: 3 g
[3]; 3 g 4-GX oral, lactose-tolerant adult volunteers
  time of maximum xylose in plasma after ingestion: around 2 hours
[3]; healthy lactose-tolerant adult volunteers
  dose of 4-GX sufficient for reliable detection of xylose in urine: 0.25 g
